Entries after “also recorded” stand apart in the source; their conditions may differ.
Legend:
CYP (any CYP) = assay: CYP inhibition; settings: on any CYP
BCRP = target: T1, BCRP (Homo sapiens, UniProt Q9UNQ0); settings: cited from earlier work
T1 sequence (Q9UNQ0 1-655): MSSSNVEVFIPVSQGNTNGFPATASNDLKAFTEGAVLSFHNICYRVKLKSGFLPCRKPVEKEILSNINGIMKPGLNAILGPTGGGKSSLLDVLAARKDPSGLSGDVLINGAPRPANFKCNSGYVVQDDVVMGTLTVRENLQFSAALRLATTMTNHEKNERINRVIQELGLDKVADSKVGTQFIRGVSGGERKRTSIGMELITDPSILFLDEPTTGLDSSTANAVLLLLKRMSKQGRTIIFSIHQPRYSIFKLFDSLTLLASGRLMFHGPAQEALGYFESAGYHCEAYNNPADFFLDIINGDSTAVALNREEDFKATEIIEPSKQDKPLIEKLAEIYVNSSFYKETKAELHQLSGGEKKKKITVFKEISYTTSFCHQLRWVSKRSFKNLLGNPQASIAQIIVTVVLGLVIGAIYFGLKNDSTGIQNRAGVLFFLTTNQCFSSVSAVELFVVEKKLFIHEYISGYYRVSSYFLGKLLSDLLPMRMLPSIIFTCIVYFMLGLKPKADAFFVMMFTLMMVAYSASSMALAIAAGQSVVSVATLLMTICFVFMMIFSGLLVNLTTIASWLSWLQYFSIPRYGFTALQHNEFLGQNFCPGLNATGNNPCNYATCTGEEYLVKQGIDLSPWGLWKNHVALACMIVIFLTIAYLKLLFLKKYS

OATP1B3 = target: T2, OATP1B3 (Homo sapiens, UniProt Q9NPD5); settings: cited from earlier work
T2 sequence (Q9NPD5 1-702): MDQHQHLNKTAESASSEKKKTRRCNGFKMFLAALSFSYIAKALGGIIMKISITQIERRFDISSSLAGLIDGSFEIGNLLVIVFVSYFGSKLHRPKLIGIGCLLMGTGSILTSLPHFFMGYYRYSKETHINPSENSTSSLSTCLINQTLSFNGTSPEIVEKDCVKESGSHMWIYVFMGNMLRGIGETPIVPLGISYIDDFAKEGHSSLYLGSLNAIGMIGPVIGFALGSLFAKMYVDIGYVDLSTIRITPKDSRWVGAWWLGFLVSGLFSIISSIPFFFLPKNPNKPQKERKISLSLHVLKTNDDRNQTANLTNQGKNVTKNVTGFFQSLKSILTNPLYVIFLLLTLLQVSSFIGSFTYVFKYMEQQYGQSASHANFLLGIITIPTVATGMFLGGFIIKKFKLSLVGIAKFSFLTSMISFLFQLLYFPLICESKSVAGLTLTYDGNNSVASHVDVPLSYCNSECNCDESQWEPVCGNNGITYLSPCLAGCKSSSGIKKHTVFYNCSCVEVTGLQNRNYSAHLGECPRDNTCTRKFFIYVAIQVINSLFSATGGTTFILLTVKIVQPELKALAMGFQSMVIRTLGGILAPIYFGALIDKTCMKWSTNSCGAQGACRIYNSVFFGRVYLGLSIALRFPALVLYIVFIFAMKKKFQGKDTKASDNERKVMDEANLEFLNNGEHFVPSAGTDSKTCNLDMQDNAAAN

OATP1B1 = target: T3, OATP1B1 (Homo sapiens, UniProt Q9Y6L6); settings: cited from earlier work
T3 sequence (Q9Y6L6 1-691): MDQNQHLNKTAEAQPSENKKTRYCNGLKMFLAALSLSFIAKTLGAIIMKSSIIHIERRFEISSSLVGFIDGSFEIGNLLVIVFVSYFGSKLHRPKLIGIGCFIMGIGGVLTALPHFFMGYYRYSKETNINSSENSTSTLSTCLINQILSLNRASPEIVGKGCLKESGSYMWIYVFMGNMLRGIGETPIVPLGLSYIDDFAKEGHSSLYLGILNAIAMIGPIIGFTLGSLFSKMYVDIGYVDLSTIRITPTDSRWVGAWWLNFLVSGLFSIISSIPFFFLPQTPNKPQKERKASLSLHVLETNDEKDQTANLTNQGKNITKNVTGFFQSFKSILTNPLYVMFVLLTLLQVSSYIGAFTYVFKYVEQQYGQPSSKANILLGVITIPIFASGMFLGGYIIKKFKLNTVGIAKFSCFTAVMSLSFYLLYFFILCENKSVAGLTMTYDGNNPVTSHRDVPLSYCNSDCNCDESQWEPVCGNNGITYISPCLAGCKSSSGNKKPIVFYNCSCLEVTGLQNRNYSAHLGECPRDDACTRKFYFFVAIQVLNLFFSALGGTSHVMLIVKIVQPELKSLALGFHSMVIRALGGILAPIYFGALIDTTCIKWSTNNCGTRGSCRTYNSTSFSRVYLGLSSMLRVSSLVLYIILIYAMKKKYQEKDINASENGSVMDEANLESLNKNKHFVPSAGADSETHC

Row | SMILES | CYP inhibition potential (CYP (any CYP)) | inhibition of BCRP (BCRP) | inhibition of OATP1B3 (OATP1B3) | inhibition of OATP1B1 (OATP1B1)
1 | CC(C)OC(=O)[C@H](C)N[P@](=O)(OC[C@@]1(F)O[C@@H](n2ccc(=O)[nH]c2=O)[C@](C)(O)[C@@H]1O)Oc1ccccc1 [Compound (III), isopropyl ((S)-(((2S,3S,4R,5R)-5-(2,4-dioxo-3,4-dihydropyrimidin-1 (2H)-yl)-2-fluoro-3,4-dihydroxy-4-methyltetrahydrofuran-2-yl)methoxy)(phenoxy)phosphoryl)-L-alaninate] | limited CYP inhibition potential | no in vitro inhibition | no in vitro inhibition | no in vitro inhibition
2 | COC(=O)N[C@H](C(=O)N1[C@H](c2nc3cc(-c4cc5ccc4CCc4ccc(c(-c6ccc7[nH]c([C@@H]8C[C@@H]9CCCC[C@@H]9N8C(=O)[C@@H](NC(=O)OC)C(C)C)nc7c6)c4)CC5)ccc3[nH]2)C[C@@H]2CCCC[C@@H]21)C(C)C [ODV, methyl [(2S)-1-[(2S,3aS,7aS)-2-[6-[11-[2-[(2S,3aS,7aS)-1-[(2S)-2-[(methoxycarbonyl)amino]-3-methylbutanoyl]octahydro-1H-indol-2-yl]-1H-benzimidazol-6-yl]tricyclo[8.2.2.2^4,7]hexadeca-1(12),4,6,10,13,15-hexaen-5-yl]-1H-benzimidazol-2-yl]octahydro-1H-indol-1-yl]-3-methyl-1-oxobutan-2-yl]carbamate] | does not inhibit cytochrome P450 enzymes; also recorded: does not inhibit CYP450 activity | no inhibition | no inhibition | no inhibition

— US20170319572A1, “COMBINATION DRUG TREATMENT FOR HEPATITIS C INFECTION” (JANSSEN PHARMACEUTICALS, INC., priority 2015, published 2017)
